In the test the target is human activated kallikrein enzyme (Homo sapiens, UniProt P03952). Nature of the test: Inhibition of human activated plasma kallikrein, fluorogenic peptide substrate (PFR-AMC), 500 pM enzyme format. Format: biochemical. The note with it: 500 pM activated kallikrein, 30 min preincubation, 10 min reaction, room temperature, read-out: Primary Dose Response Assay: Average EC50. The procedure:
Compounds were evaluated for inhibition of the human activated kallikrein enzyme in two formats of an assay employing a fluorogenic peptide substrate. In one assay format, the concentrations of reagents were as follows: 20 mM Tris pH 7.5, 1 mM EDTA, 150 mM sodium chloride, 0.1% PEG-400, 0.1% Triton X-100, 500 pM activated kallikrein enzyme, […] Pro-Phe-Arg-7-amido-4-methylcoumarin (PFR-AMC) substrate. Prior to reaction initiation with substrate, enzyme and inhibitors were preincubated for 30 min at room temperature. After initiation with substrate, reactions were incubated for 10 min at room temperature and fluorescence emission at 460 nm from 380 nm excitation measured with a microplate reader. In another assay format, the concentrations of reagents were as follows: 20 mM Tris pH 7.5, 1 mM EDTA, 150 mM sodium chloride, 0.1% PEG-400, 0.1% Triton X-100, 5 pM activated kallikrein enzyme, 300 uM PFR-AMC substrate. Prior to reaction initiation with substrate, enzyme and inhibitors were preincubated for 30 min at room temperature. After initiation with substrate, reactions were incubated for 18 hr at room temperature and fluorescence emission at 460 nm from 380 nm excitation measured with a microplate reader.

human activated kallikrein enzyme, sequence (P03952 391-638 limits assumed): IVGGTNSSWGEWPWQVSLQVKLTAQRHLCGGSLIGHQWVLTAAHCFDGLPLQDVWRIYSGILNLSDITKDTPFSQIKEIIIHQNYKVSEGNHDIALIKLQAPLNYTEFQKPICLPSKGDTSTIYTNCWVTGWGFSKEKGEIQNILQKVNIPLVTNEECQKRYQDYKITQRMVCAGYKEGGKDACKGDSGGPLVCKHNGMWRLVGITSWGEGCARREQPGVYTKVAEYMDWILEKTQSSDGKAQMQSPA
human activated kallikrein enzyme, sequence (P03952 20-390 partner limits assumed): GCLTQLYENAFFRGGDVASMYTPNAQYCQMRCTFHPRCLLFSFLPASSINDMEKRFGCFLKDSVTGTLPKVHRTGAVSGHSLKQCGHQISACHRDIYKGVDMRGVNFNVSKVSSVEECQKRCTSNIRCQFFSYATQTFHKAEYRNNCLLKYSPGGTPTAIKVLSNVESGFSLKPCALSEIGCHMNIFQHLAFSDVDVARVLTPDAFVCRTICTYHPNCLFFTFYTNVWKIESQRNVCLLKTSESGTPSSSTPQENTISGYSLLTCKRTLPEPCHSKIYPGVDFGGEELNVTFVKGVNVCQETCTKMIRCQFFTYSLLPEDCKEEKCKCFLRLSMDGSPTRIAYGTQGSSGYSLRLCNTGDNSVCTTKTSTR

Regarding `Cc1ccnc([C@H]2C[C@@H]2C(=O)Nc2cc(NCc3ccc(N4CC5CC5C4)nc3)ncn2)n1` (relative stereo) [Example 79, rac-(1S*,2S*)—N-(6-(((6-(3-azabicyclo[3.1.0]hexan-3-yl)pyridin-3-yl)methyl)amino)pyrimidin-4-yl)-2-(4-methylpyrimidin-2-yl)cyclopropane-1-carboxamide], the EC50 was 2.5 to 25 nM.

For `O=C(Nc1cc(NCc2ccc(Cn3ccccc3=O)cc2)cnn1)[C@H]1C[C@@H]1c1cccc(Cl)c1` (single isomer, unassigned) [Example 15], the EC50 lay in the range of 25 to 500 nM.

For the molecule `O=C(Nc1cc(NCc2ccc(Cn3ccccc3=O)cc2)cnn1)[C@@H]1C[C@H]1c1cccc(Cl)c1` (single isomer, unassigned) [Example 16], the EC50 was < 2.5 nM.

Regarding `Cc1ccnc([C@@H]2C[C@H]2C(=O)Nc2cc(N3C[C@@H](O)C[C@@H]3c3cn4cc(C5CC5)cnc4n3)ncn2)c1` (single isomer, unassigned) [Example 74, (1S*,2S*)—N-(6-((2R,4S)-2-(6-cyclopropylimidazo[1,2-a]pyrimidin-2-yl)-4-hydroxypyrrolidin-1-yl)pyrimidin-4-yl)-2-(4-methylpyridin-2-yl)cyclopropane-1-carboxamide], the EC50 was > 500 nM.

For the molecule `Cc1ccnc([C@H]2C[C@@H]2C(=O)Nc2cc(N[C@@H](C)c3nc4c(N5CC(=O)N(C)C5=O)cc(C5CC5)cn4n3)ncn2)n1` (single isomer, unassigned; isomer 2) [Example 108], the concentration giving a half-maximal response (EC50) was 2.5 to 25 nM.

Regarding `O=C(Nc1cc(OCc2ccc(Cn3cccn3)cc2)cnn1)C1CC12C(=O)Nc1ccccc12` (stereo not shown) [Example 7, N-(5-((4-((1H-pyrazol-1-yl)methyl)benzyl)oxy)pyridazin-3-yl)-2′-oxospiro[cyclopropane-1,3′-indoline]-2-carboxamide], the EC50 was > 500 nM.

For the molecule `O=C(Nc1cc(NCc2nc3ccc(C4CC4)cn3n2)ncn1)[C@H]1C[C@@H]1c1cccc(Cl)c1` [Example 26, (1S,2S)-2-(3-chlorophenyl)-N-(6-(((6-cyclopropyl-[1,2,4]triazolo[1,5-a]pyridin-2-yl)methyl)amino)pyrimidin-4-yl)cyclopropane-1-carboxamide], the EC50 lay in the range of 25 to 500 nM.

Turning to `O=C(Nc1cc(NCc2nc3ccc(C4CC4)nn3n2)ncn1)[C@H]1C[C@@H]1c1cccc(Cl)c1` [Example 28, (1S,2S)-2-(3-chlorophenyl)-N-(6-(((6-cyclopropyl-[1,2,4]triazolo[1,5-b]pyridazin-2-yl)methyl)amino)pyrimidin-4-yl)cyclopropane-1-carboxamide], the EC50 was > 500 nM.

Consider `O=C(Nc1cc(NCc2nc3ncc(C4CC4)cn3n2)ncn1)[C@H]1C[C@@H]1c1cccc(Cl)c1` [Example 32, (1S,2S)-2-(3-chlorophenyl)-N-(6-(((6-cyclopropyl-[1,2,4]triazolo[1,5-a]pyrimidin-2-yl)methyl)amino)pyrimidin-4-yl)cyclopropane-1-carboxamide], for which the EC50 is 2.5 to 25 nM.

For `O=C(Nc1cc(NCc2ccc3ncc(C4CC4)cc3c2)ccn1)[C@H]1C[C@@H]1c1cccc(Cl)c1` [Example 33, (1S,2S)-2-(3-chlorophenyl)-N-(4-(((3-cyclopropylquinolin-6-yl)methyl)amino)pyridin-2-yl)cyclopropane-1-carboxamide], the concentration for a half-maximal effect (EC50) was 2.5 to 25 nM.

For `O=C(Nc1cc(NCc2cnc3ccc(C4CC4)cc3c2)ccn1)[C@H]1C[C@@H]1c1cccc(Cl)c1` [Example 34, (1S,2S)-2-(3-chlorophenyl)-N-(4-(((6-cyclopropylquinolin-3-yl)methyl)amino)pyridin-2-yl)cyclopropane-1-carboxamide], the 50% effective concentration (EC50) was 2.5 to 25 nM.

For the molecule `O=C(Nc1cc(NCc2cn3c(=O)n(C4CC4)ccc3n2)ccn1)[C@H]1C[C@@H]1c1cccc(Cl)c1` [Example 36, (1S,2S)-2-(3-chlorophenyl)-N-(4-(((6-cyclopropyl-5-oxo-5,6-dihydroimidazo[1,2-c]pyrimidin-2-yl)methyl)amino)pyridin-2-yl)cyclopropane-1-carboxamide], the EC50 was in the range of 2.5 to 25 nM.

As for `CC(C)Oc1nccc2nc(CNc3cc(NC(=O)[C@H]4C[C@@H]4c4cccc(Cl)c4)ncn3)cn12` [Example 37, (1S,2S)-2-(3-chlorophenyl)-N-(6-(((5-isopropoxyimidazo[1,2-c]pyrimidin-2-yl)methyl)amino)pyrimidin-4-yl)cyclopropane-1-carboxamide], the EC50 was > 500 nM.

Regarding `CC(C)n1ccc2nc(CNc3cc(NC(=O)[C@H]4C[C@@H]4c4cccc(Cl)c4)ncn3)cn2c1=O` [Example 38, (1S,2S)-2-(3-chlorophenyl)-N-(6-(((6-isopropyl-5-oxo-5,6-dihydroimidazo[1,2-c]pyrimidin-2-yl)methyl)amino)pyrimidin-4-yl)cyclopropane-1-carboxamide], the concentration giving a half-maximal response (EC50) lay in the range of 25 to 500 nM.

In the case of `O=C(Nc1cc(NCc2nc3c(N4CCOC4=O)cc(C4CC4)cn3n2)ncn1)[C@H]1C[C@@H]1c1cccc(Cl)c1` [Example 43, (1S,2S)-2-(3-chlorophenyl)-N-(6-(((6-cyclopropyl-8-(2-oxooxazolidin-3-yl)-[1,2,4]triazolo[1,5-a]pyridin-2-yl)methyl)amino)pyrimidin-4-yl)cyclopropane-1-carboxamide], the EC50 lay in the range of 2.5 to 25 nM.

As to `O=C(Nc1cc(NCc2cn3nc(C4CC4)cc(N4CCOC4=O)c3n2)ncn1)[C@H]1C[C@@H]1c1cccc(Cl)c1` [Example 44, (1S,2S)-2-(3-chlorophenyl)-N-(6-(((6-cyclopropyl-8-(2-oxooxazolidin-3-yl)imidazo[1,2-b]pyridazin-2-yl)methyl)amino)pyrimidin-4-yl)cyclopropane-1-carboxamide], the EC50 is 2.5 to 25 nM.

Turning to `CCOC(=O)CCc1cc(C2CC2)cc2cc(CNc3cc(NC(=O)[C@H]4C[C@@H]4c4cccc(Cl)c4)ncn3)nn12` [Example 47, ethyl 3-(2-(((6-((1S,2S)-2-(3-chlorophenyl)cyclopropane-1-carboxamido)pyrimidin-4-yl)amino)methyl)-5-cyclopropylpyrazolo[1,5-a]pyridin-7-yl)propanoate], the concentration for a half-maximal effect (EC50) was 2.5 to 25 nM.

For the molecule `O=C(O)CCc1cc(C2CC2)cc2cc(CNc3cc(NC(=O)[C@H]4C[C@@H]4c4cccc(Cl)c4)ncn3)nn12` [Example 48, 3-(2-(((6-((1S,2S)-2-(3-chlorophenyl)cyclopropane-1-carboxamido)pyrimidin-4-yl)amino)methyl)-5-cyclopropylpyrazolo[1,5-a]pyridin-7-yl)propanoic acid], the EC50 was 2.5 to 25 nM.

`O=C(Nc1cc(NCc2cn3c(NC4CC4)nccc3n2)ncn1)[C@H]1C[C@@H]1c1cccc(Cl)c1` [Example 50, (1S,2S)-2-(3-chlorophenyl)-N-(6-(((5-(cyclopropylamino)imidazo[1,2-c]pyrimidin-2-yl)methyl)amino)pyrimidin-4-yl)cyclopropane-1-carboxamide]: the EC50 was > 500 nM.

In the case of `CC(C)(O)CCc1cc(C2CC2)cc2cc(CNc3cc(NC(=O)[C@H]4C[C@@H]4c4cccc(Cl)c4)ncn3)nn12` [Example 51, (1S,2S)-2-(3-chlorophenyl)-N-(6-(((5-cyclopropyl-7-(3-hydroxy-3-methylbutyl)pyrazolo[1,5-a]pyridin-2-yl)methyl)amino)pyrimidin-4-yl)cyclopropane-1-carboxamide], the EC50 is 2.5 to 25 nM.

Consider `CC(C)(C#N)Cc1cc(C2CC2)cc2cc(CNc3cc(NC(=O)[C@H]4C[C@@H]4c4cccc(Cl)c4)ncn3)nn12` [Example 55, (1S,2S)-2-(3-chlorophenyl)-N-(6-(((7-(2-cyano-2-methylpropyl)-5-cyclopropylpyrazolo[1,5-a]pyridin-2-yl)methyl)amino)pyrimidin-4-yl)cyclopropane-1-carboxamide], for which the EC50 was in the range of 2.5 to 25 nM.

As to `CN1CCN(c2cc(C3CC3)cn3nc(CNc4cc(NC(=O)[C@H]5C[C@@H]5c5cccc(Cl)c5)ncn4)nc23)CC1` [Example 58, (1S,2S)-2-(3-chlorophenyl)-N-(6-(((6-cyclopropyl-8-(4-methylpiperazin-1-yl)-[1,2,4]triazolo[1,5-a]pyridin-2-yl)methyl)amino)pyrimidin-4-yl)cyclopropane-1-carboxamide], the 50% effective concentration (EC50) lay in the range of 2.5 to 25 nM.

With `CN1CCN(c2cc(Cl)cc3cc(CNc4cc(NC(=O)[C@H]5C[C@@H]5c5cccc(Cl)c5)ncn4)cnc23)CC1` [Example 59, (1S,2S)—N-(6-(((6-chloro-8-(4-methylpiperazin-1-yl)quinolin-3-yl)methyl)amino)pyrimidin-4-yl)-2-(3-chlorophenyl)cyclopropane-1-carboxamide], the EC50 fell in the range of 2.5 to 25 nM.

`CN1C(=O)CN(c2cc(C3CC3)nn3cc(CNc4cc(NC(=O)[C@H]5C[C@@H]5c5cccc(Cl)c5)ncn4)nc23)C1=O` [Example 62, (S,2S)-2-(3-chlorophenyl)-N-(6-(((6-cyclopropyl-8-(3-methyl-2,4-dioxoimidazolidin-1-yl)imidazo[1,2-b]pyridazin-2-yl)methyl)amino)pyrimidin-4-yl)cyclopropane-1-carboxamide]: the concentration for a half-maximal effect (EC50) was 2.5 to 25 nM.

Regarding `O=C(Nc1cc(N2C[C@@H](O)C[C@@H]2C(=O)Nc2ccc(C3CC3)cc2)ncn1)[C@H]1C[C@@H]1c1cccc(Cl)c1` [Example 64, (2R,4S)-1-(6-((1S,2S)-2-(3-chlorophenyl)cyclopropane-1-carboxamido)pyrimidin-4-yl)-N-(4-cyclopropylphenyl)-4-hydroxypyrrolidine-2-carboxamide], the EC50 is > 500 nM.

For the origin of these results see patent US20240226106A1, “INHIBITORS OF PLASMA KALLIKREIN” (SHIRE HUMAN GENETIC THERAPIES, INC., priority 2021, published 2024).
